# Experimental data taken from patent publication US8513232B2, “Substituted spirocyclic piperidine derivatives as histamine-3 (H3) receptor ligands” (Cephalon, Inc., priority 2008, dated 2013).
# Where two headings read alike, the source gives them in different places.
# Assays:
# human H3 receptor = target: T1, human H3 receptor (Homo sapiens, UniProt Q9Y5N1); assay: Human H3 radioligand binding ([3H]-N-alpha-methylhistamine, SPA)
# T1 construct: expressed in transfected cells
# Procedure: (§1) Methods: CHO cells stably expressing the human H3 receptor (GenBank: NM_007232) were harvested and cell pellets were frozen (−80° C.). Cell pellets were resuspended in 5 mM Tris-HCl, pH 7.5 with […] and a cocktail of protease inhibitors (Complete Protease Inhibitior Tablets, Roche Diagnostics). Cells were disrupted using a polytron cell homogenizer and the suspension was centrifuged at 1000×g for 10 minutes at 4° C. The pellet was discarded and the supernatant centrifuged at 40,000×g for 30 min at 4° C. This membrane pellet was washed in membrane buffer containing 50 mM Tris-HCl, pH 7.5 with 0.6 mM EDTA, 5 mM MgCl2 and protease inhibitors, recentrifuged as above and the final pellet resuspended in membrane buffer plus 250 mM sucrose and frozen at −80° C.
# (§2) Radioligand Binding. Membranes were resuspended in 50 mM Tris HCl (pH 7.4), 5 mM MgCl2, 0.1% BSA. The membrane suspensions (10 μg protein per well) were incubated in a 96 well microtiter plate with [^3H]-N-alpha-methylhistamine (approximately 1 nM final concentration), test compounds at various concentrations (0.01 nM-30 μM) and scintillation proximity beads (Perkin Elmer, FlashBlueGPCR Scintillating Beads) in a final volume of 80 μl for 4 hours at room temperature, protected from light. Non-specific binding was determined in the presence of 10 μM clobenpropit. Radioligand bound to receptor, and therefore in proximity to the scintillation beads, was measured using a MicroBeta scintillation counter.
# [1] = target: T2, rat histamine H3 receptor (Rattus norvegicus, UniProt Q9QYN8); assay: Rat H3 radioligand binding ([3H]-N-alpha-methylhistamine, SPA)
# T2 construct: encoding the entire 445-amino-acid rat histamine H3 receptor; expressed in transfected cells; membrane preparation
# T2 sequence (Q9QYN8 whole entry): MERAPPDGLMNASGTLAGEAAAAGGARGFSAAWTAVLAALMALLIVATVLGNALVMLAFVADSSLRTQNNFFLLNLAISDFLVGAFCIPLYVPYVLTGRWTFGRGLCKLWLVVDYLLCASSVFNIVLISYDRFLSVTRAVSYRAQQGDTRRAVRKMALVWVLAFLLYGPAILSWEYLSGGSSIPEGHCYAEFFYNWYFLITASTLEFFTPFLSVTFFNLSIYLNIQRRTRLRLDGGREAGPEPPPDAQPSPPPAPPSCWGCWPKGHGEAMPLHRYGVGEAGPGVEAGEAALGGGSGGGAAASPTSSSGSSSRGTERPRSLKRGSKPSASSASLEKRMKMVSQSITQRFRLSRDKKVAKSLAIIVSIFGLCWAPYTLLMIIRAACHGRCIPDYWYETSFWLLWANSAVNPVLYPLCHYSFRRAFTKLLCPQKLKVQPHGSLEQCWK
# Text: as §1, with “Cell line development and membrane preparation. The rat” for “Methods: CHO cells stably expressing the human”, “cDNA was PCR amplified from reverse-transcribed RNA pooled from rat thalamus, hypothalamus, striatum and prefrontal cortex with a sequence corresponding to by #338-1672 of Genbank file #NM_053506, encoding the entire 445-amino-acid rat histamine H3 receptor. This was engineered into the pIRES-neo3 mammalian expression vector, which was stably transfected into the CHO-A3 cell line (Euroscreen, Belgium), followed by clonal selection by limiting dilution. Cells” for “(GenBank: NM_007232)”
# as §2
# [2] = Table A, human H3 binding, read-out: Human Ki
# [3] = Table A, rat H3 binding, read-out: Rat Ki
# [4] = Table C, human H3 binding, read-out: Human H3 Ki
# [5] = Table C, rat H3 binding, read-out: Rat H3 Ki
# [6] = human H3 binding, Table D, read-out: Human H3 Ki
# [7] = rat H3 binding, Table D, read-out: Rat H3 Ki
# [8] = Human H3 binding, Table B, Examples 136-362, read-out: hum H3 binding Ki
# [9] = Rat H3 binding, Table B, Examples 136-362, read-out: rat H3 binding Ki
# T1 sequence (Q9Y5N1 whole entry): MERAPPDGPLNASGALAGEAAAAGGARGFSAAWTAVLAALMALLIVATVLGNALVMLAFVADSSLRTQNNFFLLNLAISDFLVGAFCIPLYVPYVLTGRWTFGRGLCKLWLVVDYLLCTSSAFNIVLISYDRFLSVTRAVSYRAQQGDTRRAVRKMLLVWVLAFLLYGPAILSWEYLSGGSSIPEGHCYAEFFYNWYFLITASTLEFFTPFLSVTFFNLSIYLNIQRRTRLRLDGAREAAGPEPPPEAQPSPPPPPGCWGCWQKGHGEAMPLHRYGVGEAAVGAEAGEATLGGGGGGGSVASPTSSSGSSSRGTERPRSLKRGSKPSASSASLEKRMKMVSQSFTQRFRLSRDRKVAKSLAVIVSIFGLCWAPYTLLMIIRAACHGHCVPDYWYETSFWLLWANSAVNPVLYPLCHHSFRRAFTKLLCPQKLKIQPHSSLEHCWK
Compound,Ki (human H3 receptor; [2]) [nM],"Ki [1, 3] [nM]",further results
N#Cc1ccc(-c2ccc3c(c2)OC2(CCN(C4CCC4)CC2)O3)cc1 [Example 88],200 to 1000,< 200,–
CS(=O)(=O)N1CCC(Oc2ccc3c(c2)CCC2(CCN(C4CCC4)CC2)O3)CC1 [Example 408],–,–,"Ki (human H3 receptor; [4]): < 200 nM; Ki [1, 5]: < 200 nM"
COc1ccc(CCc2ccc3c(c2)COC2(CCN(C4CCC4)CC2)O3)cn1 [Example 522],–,–,Ki (human H3 receptor; read-out: Human H3 Ki): < 200 nM; Ki ([1]; read-out: Rat H3 kI): < 200 nM
CC(C)(C)OC(=O)n1cccc1-c1ccc2c(c1)COC1(CCN(C3CCC3)CC1)O2 [Example 706],–,–,"Ki (human H3 receptor; [6]): < 200 nM; Ki [1, 7]: < 200 nM"
O=C(c1ccc(-c2ccc3c(c2)CCC2(CCN(C4CCC4)CC2)O3)cn1)N1CC[C@H](O)C1 [Example 213],–,–,"Ki (human H3 receptor; [8]): < 200 nM; Ki [1, 9]: < 200 nM"
O=C(c1cccc(-c2ccc3c(c2)COC2(CCN(C4CCC4)CC2)O3)c1)N1CCOCC1 [Example 56],< 200,< 200,–
O=C(NC1CC1)c1cccc(-c2ccc3c(c2)COC2(CCN(C4CCC4)CC2)O3)c1 [Example 55],< 200,< 200,–
c1nc(Cc2ccc3c(c2)COC2(CCN(C4CCC4)CC2)O3)cs1 [Example 701],–,–,"Ki (human H3 receptor; [6]): < 200 nM; Ki [1, 7]: < 200 nM"
c1cc2c(cc1N1CCOCC1)COC1(CCN(C3CCC3)CC1)O2 [Example 214],–,–,"Ki (human H3 receptor; [8]): < 200 nM; Ki [1, 9]: < 200 nM"
CC(C)Cn1cc(-c2ccc3c(c2)COC2(CCN(C4CCC4)CC2)O3)ccc1=O [Example 562],–,–,Ki (human H3 receptor; read-out: Human H3 Ki): < 200 nM; Ki ([1]; read-out: Rat H3 kI): < 200 nM
Nc1cccc(-c2ccc3c(c2)COC2(CCN(C4CCC4)CC2)O3)c1 [Example 51],< 200,< 200,–
Cc1cc(-c2ccc3c(c2)CCC2(CCN(C4CCC4)CC2)O3)ccc1C(=O)O [Example 327],–,–,"Ki (human H3 receptor; [8]): < 200 nM; Ki [1, 9]: 200 to 1000 nM"
O=S(=O)(c1ccc(-c2ccc3c(c2)COC2(CCN(C4CCC4)CC2)O3)c(F)c1)N1CCOCC1 [Example 65],< 200,< 200,–
Cc1cc(-c2ccc3c(c2)COC2(CCN(C4CCC4)CC2)O3)cnc1OCc1ccccc1 [Example 549],–,–,Ki (human H3 receptor; read-out: Human H3 Ki): 200 to 1000 nM; Ki ([1]; read-out: Rat H3 kI): > 1000 nM
O=C(Nc1cccc(-c2ccc3c(c2)COC2(CCN(C4CCCC4)CC2)O3)c1)c1ccccc1 [Example 62],< 200,–,–
CNC(=O)c1ccc(-c2ccc3c(c2)COC2(CCN(C4CCC4)CC2)O3)cc1C#N [Example 179],–,–,"Ki (human H3 receptor; [8]): < 200 nM; Ki [1, 9]: < 200 nM"
COC1(c2ccc3c(c2)COC2(CCN(C4CCC4)CC2)O3)CC(C(=O)N2CCCC2)C1 (centres unmarked) [Example 540],–,–,Ki (human H3 receptor; read-out: Human H3 Ki): < 200 nM; Ki ([1]; read-out: Rat H3 kI): < 200 nM
Fc1ccc(-c2ccc3c(c2)COC2(CCN(C4CCC4)CC2)O3)cn1 [Example 1],< 200,< 200,–
O=C(c1ccncc1)N1CCN(c2ccc3c(c2)COC2(CCN(C4CCC4)CC2)O3)C(=O)C1 [Example 741],–,–,"Ki (human H3 receptor; [6]): < 200 nM; Ki [1, 7]: < 200 nM"
c1cc2c(cc1-c1ccc3nonc3c1)CCC1(CCN(C3CCC3)CC1)O2 [Example 112],< 200,< 200,–

Compound,Ki (human H3 receptor; [2]) [nM],"Ki [1, 3] [nM]",further results
COC(c1ccncc1)c1ccc2c(c1)COC1(CCN(C3CCC3)CC1)O2 (centres unmarked) [Example 724],–,–,"Ki (human H3 receptor; [6]): < 200 nM; Ki [1, 7]: < 200 nM"
CCS(=O)(=O)c1cc(-c2ccc3c(c2)COC2(CCN(C4CCC4)CC2)O3)c[nH]c1=O [Example 807],–,–,"Ki (human H3 receptor; [6]): < 200 nM; Ki [1, 7]: < 200 nM"
c1cc2c(cc1-c1ccc3c(c1)COC1(CCN(C4CCC4)CC1)O3)CCO2 [Example 2],< 200,< 200,–
CN(C)c1ncc(-c2ccc3c(c2)CCC2(CCN(C4CCC4)CC2)O3)cn1 [Example 108],< 200,< 200,–
c1cncc(-c2ccc3c(c2)COC2(CCN(C4CCC4)CC2)O3)c1 [Example 7],< 200,< 200,–
c1cc2c(cc1OCC1CCCO1)CCC1(CCN(C3CCC3)CC1)O2 (centres unmarked) [Example 449],–,–,Ki (human H3 receptor; read-out: Human H3 Ki): < 200 nM; Ki ([1]; read-out: Rat H3 kI): < 200 nM
CCNC(=O)C1CCC(c2ccc3c(c2)COC2(CCN(C4CCC4)CC2)O3)CC1 (centres unmarked) [Example 524],–,–,Ki (human H3 receptor; read-out: Human H3 Ki): < 200 nM; Ki ([1]; read-out: Rat H3 kI): < 200 nM
O=C(NC1CC1)c1ccc(-c2ccc3c(c2)CCC2(CCN(C4CCC4)CC2)O3)cc1 [Example 109],< 200,< 200,–
CN(C)S(=O)(=O)c1ccc(-c2ccc3c(c2)COC2(CCN(C4CCC4)CC2)O3)cc1 [Example 32],< 200,< 200,–
COC1(c2ccc3c(c2)COC2(CCN(C4CCC4)CC2)O3)CCC(C(F)(F)F)CC1 (centres unmarked) [Example 568],–,–,Ki (human H3 receptor; read-out: Human H3 Ki): < 200 nM; Ki ([1]; read-out: Rat H3 kI): < 200 nM
CN(C)C(=O)c1ccc(N2CCN(c3ccc4c(c3)CCC3(CCN(C5CCC5)CC3)O4)CC2)nc1 [Example 410],–,–,"Ki (human H3 receptor; [4]): < 200 nM; Ki [1, 5]: < 200 nM"
c1ncc(Cc2ccc3c(c2)COC2(CCN(C4CCC4)CC2)O3)s1 [Example 690],–,–,"Ki (human H3 receptor; [6]): < 200 nM; Ki [1, 7]: < 200 nM"
c1cnc(-c2ccc3c(c2)CCC2(CCN(C4CCC4)CC2)O3)cn1 [Example 145],–,–,"Ki (human H3 receptor; [8]): < 200 nM; Ki [1, 9]: < 200 nM"
c1ccc2oc(-c3ccc4c(c3)COC3(CCN(C5CCC5)CC3)O4)cc2c1 [Example 6],200 to 1000,–,–
c1cc2c(cc1OCC1CCCO1)CCC1(CCN(C3CCC3)C1)O2 (centres unmarked) [Example 445],–,–,Ki (human H3 receptor; read-out: Human H3 Ki): 200 to 1000 nM; Ki ([1]; read-out: Rat H3 kI): 200 to 1000 nM
O=S1(=O)CCC(COc2ccc3c(c2)CCC2(CCN(C4CCC4)CC2)O3)CC1 [Example 500],–,–,Ki (human H3 receptor; read-out: Human H3 Ki): < 200 nM; Ki ([1]; read-out: Rat H3 kI): < 200 nM
NC(=O)c1ccc(N2CCN(c3ccc4c(c3)CCC3(CCN(C5CCC5)CC3)O4)CC2)nc1 [Example 379],–,–,"Ki (human H3 receptor; [4]): < 200 nM; Ki [1, 5]: < 200 nM"
O=S(=O)(c1ccc(-c2ccc3c(c2)COC2(CCN(C4CCC4)CC2)O3)cc1)N1CCOCC1 [Example 17],< 200,< 200,–
CC(C)N1CCC2(CC1)OCc1cc(-c3cccc(N)c3)ccc1O2 [Example 63],< 200,–,–
CC(C)N1CCC2(CC1)OCc1cc(-c3ccc4c(c3)CCO4)ccc1O2 [Example 64],< 200,–,–

# More lines, main results first:
Ki (human H3 receptor; [2]) [nM],"Ki [1, 3] [nM]",Compound,further results
< 200,< 200,CS(=O)(=O)c1ccc(-c2ccc3c(c2)COC2(CCN(C4CCC4)CC2)O3)cc1 [Example 21],–
< 200,< 200,CCOc1ccc(-c2ccc3c(c2)COC2(CCN(C4CCC4)CC2)O3)cn1 [Example 11],–
< 200,< 200,O=C(c1ccc(-c2ccc3c(c2)OC2(CCN(C4CCC4)CC2)O3)cc1)N1CCOCC1 [Example 89],–
< 200,–,Nc1cccc(-c2ccc3c(c2)COC2(CCN(C4CCCC4)CC2)O3)c1 [Example 61],–
< 200,< 200,CS(=O)(=O)c1ccc(-c2ccc3c(c2)CCC2(CCN(C4CCC4)CC2)O3)cc1 [Example 101],–
< 200,< 200,CCOc1ccc(-c2ccc3c(c2)CCC2(CCN(C4CCC4)CC2)O3)cn1 [Example 100],–
< 200,< 200,OCc1ccc(-c2ccc3c(c2)CCC2(CCN(C4CCC4)CC2)O3)cc1 [Example 117],–
< 200,< 200,CNC(=O)c1ccc(-c2ccc3c(c2)CCC2(CCN(C4CCC4)CC2)O3)cc1 [Example 106],–
< 200,< 200,O=S(=O)(c1ccc(-c2ccc3c(c2)CCC2(CCN(C4CCC4)CC2)O3)cc1)N1CCCC1 [Example 103],–
< 200,< 200,O=C(c1ccc(-c2ccc3c(c2)COC2(CCN(C4CCC4)CC2)O3)cc1)N1CCOCC1 [Example 9],–
< 200,< 200,c1ccc(-c2ccc3c(c2)CCC2(CCN(C4CCC4)CC2)O3)cc1 [Example 102],–
< 200,< 200,N#Cc1ccc(-c2ccc3c(c2)COC2(CCN(C4CCC4)CC2)O3)cc1 [Example 3],–
< 200,< 200,NC(=O)c1ccc(-c2ccc3c(c2)COC2(CCN(C4CCC4)CC2)O3)cc1 [Example 18],–
< 200,< 200,c1cc(-c2ccc3c(c2)COC2(CCN(C4CCC4)CC2)O3)ccn1 [Example 10],–
200 to 1000,< 200,c1ccc(Oc2ccc3c(c2)COC2(CCN(C4CCC4)CC2)O3)cc1 [Example 131],–
< 200,< 200,Cc1nc(C)c(-c2ccc3c(c2)COC2(CCN(C4CCC4)CC2)O3)s1 [Example 70],–
